Measured values taken from PMC12067741, “Inhibition of SOD1 trimerization is a novel drug target for ALS disease” (Translational Neurodegeneration, 2025).
“Also recorded” adds a separate entry of the source. Read-outs that look alike come from different tables or passages of the source.

Experiments:
TDP-43 and WT-SOD1 = assay: WT-SOD1 and TDP-43 aggregation induced by ectopic TDP-43 expression in SK-N-SH cells; assay type: cell-based; conditions: TDP-43 overexpression
Description: Cells with SOD1 inclusions (white arrows; strong intensity of SOD1) were counted and the percentages are shown with standard deviation. n = 3 independent experiments; two-tailed Student’s t-test. Scale bar, 10 μm. d, e PRG-A-04 reduced misfolding of MT-SOD1. d The affinity of misfolding-specific antibody to MT-SOD1 was inhibited by PRG-A-04. e Quantification of band intensity with Image J software. Mean ± SD. A.U., arbitrary units. *P < 0.05, **P < 0.01. f PRG-A-04 reduced the MT-SOD1 recombinant protein-induced increase of self-oligomerization in vitro. g WT-SOD1 and TDP-43 oligomerization induced by ectopic TDP-43 expression was abolished by PRG-A-04 treatment. h–k WT-SOD1 aggregation induced by ectopic TDP-43 expression was reduced by PRG-A-04 treatment. […] Scale bars, 10 μm. i PRG-A-04 reduced WT-SOD1 inclusions triggered by TDP-43 overexpression. Inclusion-positive cells (white arrows in h, strong intensity of SOD1) were counted and the percentages are shown as mean ± SD. j PRG-A-04 reduced the ratio of cells with cytoplasmic TDP-43 inclusions to tdtomato-positive ones. Cells with cytoplasmic TDP-43 (white arrows) among tdtomato positive ones were counted in randomly selected fields by photomicrographs and the cytosol/nucleus ratio was shown with ± SD. k PRG-A-04 reduced cytoplasmic TDP-43 inclusion. Mean ± SD. *P < 0.05, **P < 0.01, ***P < 0.005 […]

[1] = target: T1, GST-SOD1-G93A recombinant protein (MT-SOD1) (Homo sapiens, UniProt P00441, G94A); assay: GST pull-down with LC-MS/MS of protein-bound compound; assay type: binding; conditions: GST pull-down and LC-MS/MS
T1 construct: made in house; host or cells: Escherichia coli BL21 (DE3), pCold GST vector
T1 sequence (P00441 whole entry G94A): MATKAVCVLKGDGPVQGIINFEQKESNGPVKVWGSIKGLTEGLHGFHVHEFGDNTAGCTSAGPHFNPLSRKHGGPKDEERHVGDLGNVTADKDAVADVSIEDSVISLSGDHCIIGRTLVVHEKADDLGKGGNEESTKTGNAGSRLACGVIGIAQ
Method: To prepare a calibration curve within the PRG-A-04 concentration range of 1–50 ppb, standard solutions (1, 5, 10, 25, 50 ppb) were prepared by dilution with 90% methanol. GST, GST-SOD1 WT, and GST–SOD1-G93A recombinant proteins bound to GST agarose were incubated overnight with PRG-A-04 (20 μmol/L) in cold chamber (4 °C). The samples were washed three times to remove unbound PRG-A-04 from the proteins. The washed sample pellets were incubated with 90% methanol to elute the protein-bound PRG-A-04. The elutes from each sample were analyzed by LC/MS as follows. Both standard samples and control samples underwent the same sample processing procedures as the test samples. The LC–MS/MS analysis was performed on a Waters UPLC Acquity I-class plus system coupled to a Qtrap 6500 plus system (Sciex, Framingham, MA). An Aeris 3.6 μm 100 × 2.1 mm column (Phenomenex, Torrance, CA) was used for separation. The mobile phase consisted of solvent A (water containing 0.1% formic acid) and solvent B (acetonitrile containing 0.1% formic acid). Gradient elution was achieved as follows: […], 90% A, 10% B; 0.37–6.0 min, 55% A, 45% B; 6.0–7.0 min, 5% A, 95% B; 7.0–10.0 min, 90% A, 10% B. The flow rate was 0.4 mL/min. The column temperature was 40 °C, and the sample injection volume was 10 µL. After each injection, the autosampler syringe was washed with methanol. […]

CYP 2C8 = CYP 2C8 (Homo sapiens, UniProt P10632)
Chain of CYP 2C8 (P10632 whole entry): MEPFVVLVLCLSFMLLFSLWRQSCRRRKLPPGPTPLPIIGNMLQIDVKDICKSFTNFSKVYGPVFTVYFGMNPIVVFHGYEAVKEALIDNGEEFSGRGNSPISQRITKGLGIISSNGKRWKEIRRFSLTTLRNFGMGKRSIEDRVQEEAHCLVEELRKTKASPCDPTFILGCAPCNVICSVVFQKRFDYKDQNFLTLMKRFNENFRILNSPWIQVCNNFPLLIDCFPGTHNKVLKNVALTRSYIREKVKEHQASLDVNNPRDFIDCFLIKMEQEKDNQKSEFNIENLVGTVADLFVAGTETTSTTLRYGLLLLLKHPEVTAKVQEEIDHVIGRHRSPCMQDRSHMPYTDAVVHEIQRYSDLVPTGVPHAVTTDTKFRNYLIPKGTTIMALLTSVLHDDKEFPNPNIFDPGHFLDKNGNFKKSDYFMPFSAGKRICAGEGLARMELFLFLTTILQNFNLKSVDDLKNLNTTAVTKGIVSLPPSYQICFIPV
Description: (§1) Fig. S8. Preclinical data of PRG-A-04 a Plasma protein binding b CYP inhibition(direct) […]
(§2) d Mouse Brain Tissue penetration
(§3) For the convenience of calculation, […]

CYP 2B6 = CYP 2B6 (Homo sapiens, UniProt P20813)
Chain of CYP 2B6 (P20813 whole entry): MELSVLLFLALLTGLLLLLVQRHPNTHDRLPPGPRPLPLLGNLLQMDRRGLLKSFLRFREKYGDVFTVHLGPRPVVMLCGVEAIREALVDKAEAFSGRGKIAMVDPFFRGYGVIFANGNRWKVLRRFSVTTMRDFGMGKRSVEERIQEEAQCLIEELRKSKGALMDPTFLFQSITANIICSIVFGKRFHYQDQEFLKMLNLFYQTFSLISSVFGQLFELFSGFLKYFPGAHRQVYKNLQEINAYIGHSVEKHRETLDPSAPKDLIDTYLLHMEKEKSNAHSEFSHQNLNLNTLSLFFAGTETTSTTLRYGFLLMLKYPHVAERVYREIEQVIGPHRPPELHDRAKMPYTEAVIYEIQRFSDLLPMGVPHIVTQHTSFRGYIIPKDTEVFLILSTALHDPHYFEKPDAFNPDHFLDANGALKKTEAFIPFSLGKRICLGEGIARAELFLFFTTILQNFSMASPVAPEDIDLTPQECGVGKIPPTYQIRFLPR
Description: as §1, §2, §3

CYP2C19 = CYP2C19 (Homo sapiens, UniProt P33261)
Chain of CYP2C19 (P33261 whole entry): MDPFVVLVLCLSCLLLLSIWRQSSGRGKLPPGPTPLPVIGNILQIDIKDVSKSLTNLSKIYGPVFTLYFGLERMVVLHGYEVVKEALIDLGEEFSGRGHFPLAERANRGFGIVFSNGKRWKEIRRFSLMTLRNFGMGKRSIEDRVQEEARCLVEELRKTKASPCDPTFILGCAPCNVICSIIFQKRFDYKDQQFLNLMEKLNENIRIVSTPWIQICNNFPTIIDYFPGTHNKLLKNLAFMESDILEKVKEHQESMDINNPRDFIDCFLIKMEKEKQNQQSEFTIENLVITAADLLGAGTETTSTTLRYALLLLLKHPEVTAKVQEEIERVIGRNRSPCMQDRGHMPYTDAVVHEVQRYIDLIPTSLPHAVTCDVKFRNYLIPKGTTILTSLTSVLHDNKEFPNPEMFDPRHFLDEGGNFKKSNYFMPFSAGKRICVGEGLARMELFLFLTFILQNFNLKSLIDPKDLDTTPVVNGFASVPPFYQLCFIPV
Description: as §1, §2, §3

CYP 2D6 = CYP 2D6 (Homo sapiens, UniProt P10635)
Chain of CYP 2D6 (P10635 whole entry): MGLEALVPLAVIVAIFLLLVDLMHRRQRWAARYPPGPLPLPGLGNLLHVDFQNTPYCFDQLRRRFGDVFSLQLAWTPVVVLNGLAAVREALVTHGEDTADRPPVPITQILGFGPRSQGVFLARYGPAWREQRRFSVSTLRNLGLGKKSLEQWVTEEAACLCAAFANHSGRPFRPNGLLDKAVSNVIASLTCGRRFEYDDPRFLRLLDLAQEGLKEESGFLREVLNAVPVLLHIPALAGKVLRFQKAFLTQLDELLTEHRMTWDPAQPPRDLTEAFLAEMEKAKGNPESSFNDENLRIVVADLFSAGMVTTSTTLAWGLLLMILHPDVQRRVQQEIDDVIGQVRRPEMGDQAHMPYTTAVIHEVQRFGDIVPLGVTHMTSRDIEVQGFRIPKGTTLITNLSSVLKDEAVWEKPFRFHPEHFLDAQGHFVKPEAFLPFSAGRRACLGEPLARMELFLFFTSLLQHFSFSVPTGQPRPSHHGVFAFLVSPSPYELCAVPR
Description: as §1, §2, §3

plasma proteins = system: plasma proteins
Description: as §1, §2, §3

CYP 2C9 = CYP 2C9 (Homo sapiens, UniProt P11712)
Chain of CYP 2C9 (P11712 whole entry): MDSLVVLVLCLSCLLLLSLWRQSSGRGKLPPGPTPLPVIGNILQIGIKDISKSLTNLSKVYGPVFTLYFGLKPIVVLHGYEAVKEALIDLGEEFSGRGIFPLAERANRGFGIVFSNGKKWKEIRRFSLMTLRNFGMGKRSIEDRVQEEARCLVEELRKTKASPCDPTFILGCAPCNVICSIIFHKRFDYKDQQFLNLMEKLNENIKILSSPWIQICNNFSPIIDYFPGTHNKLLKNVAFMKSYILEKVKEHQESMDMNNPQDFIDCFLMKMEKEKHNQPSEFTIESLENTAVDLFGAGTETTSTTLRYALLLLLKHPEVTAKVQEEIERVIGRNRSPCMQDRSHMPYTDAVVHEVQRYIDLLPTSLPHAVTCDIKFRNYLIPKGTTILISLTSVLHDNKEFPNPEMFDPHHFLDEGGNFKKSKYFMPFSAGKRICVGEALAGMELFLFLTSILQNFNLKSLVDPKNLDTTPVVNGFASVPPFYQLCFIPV
Description: as §1, §2, §3

[2] = Metabolic stability in liver microsomes; assay type: in vitro ADME; conditions: cynomolgus monkey liver microsomes
Plasma stability = assay type: in vitro ADME; conditions: cynomolgus monkey plasma, after 120 min of incubation

COc1cc(C=CCOC2Cc3cc4ccc(=O)oc4cc3OC2(C)C)ccc1[N+](=O)[O-] (stereo not shown) [PRG-A-04]
cytosolic mislocalization of TDP-43 (TDP-43 and WT-SOD1): significantly reduced | effect on TDP-43 and SOD1 aggregation (TDP-43 and WT-SOD1): inhibitory effect on TDP-43 and SOD1 aggregation | binding affinity to MT-SOD1 versus WT-SOD1 [1]: stronger binding affinity to MT-SOD1 than to WT-SOD1 protein | IC50 (CYP 2C8): > 10 µM | IC50 (CYP 2B6): > 10 µM | IC50 (CYP2C19): 4.75 µM | IC50 (CYP 2D6): > 10 µM | % Bound (plasma proteins; Dog plasma, concentration 0.2 uM): > 99.93% | % Bound (plasma proteins; Dog plasma, concentration 2 uM): 99.95% | % Bound (plasma proteins; Dog plasma, concentration 10 uM): 99.92% | % Bound (plasma proteins; Human plasma, concentration 0.2 uM): > 99.92% | % Bound (plasma proteins; Human plasma, concentration 2 uM): 99.97% | % Bound (plasma proteins; Human plasma, concentration 10 uM): 99.97% | % Bound (plasma proteins; Monkey plasma, concentration 0.2 uM): > 99.94% | % Bound (plasma proteins; Monkey plasma, concentration 2 uM): 99.93% | % Bound (plasma proteins; Monkey plasma, concentration 10 uM): 99.89% | % Bound (plasma proteins; Mouse plasma, concentration 0.2 uM): 99.91% | % Bound (plasma proteins; Mouse plasma, concentration 2 uM): 99.92% | % Bound (plasma proteins; Mouse plasma, concentration 10 uM): 99.87% | % Bound (plasma proteins; Rat plasma, concentration 0.2 uM): 99.9% | % Bound (plasma proteins; Rat plasma, concentration 2 uM): 99.91% | % Bound (plasma proteins; Rat plasma, concentration 10 uM): 99.86% | IC50 (CYP 2C9): > 10 µM | extent of metabolism in liver microsomes [2]: moderately metabolized; also recorded: metabolized significantly | stability in plasma (Plasma stability): stable
